Reference: PubChem BioAssay AID1259408 (Genetic Toxicology Data Bank (GENE-TOX), 2018)
Active and inactive are the calls of the source. The rule behind the calls is not given here.

Tested on: GENE-TOX genotoxicity assays, various organisms and cells
Assay: GENE-TOX mutagenicity studies
Conditions: for call: Assay Type: In vivo carcinogenicity studies
[1] = Species/Cell Type: Salmonella typhimurium (one or more of the five standard strains: TA98, TA100, TA1535, TA1537, and TA1538), Assay Type: Histidine reverse gene mutation, Ames assay, Assay Code: SAL+, Evaluation Type: Evaluation A (Pre-1980)
[2] = Species/Cell Type: Mammalian polychromatic erythrocytes, Assay Type: Micronucleus test, chromosome aberrations, Assay Code: MNTT, Evaluation Type: Evaluation B (Post-1980)
[3] = Species/Cell Type: Salmonella typhimurium (one or more of the five standard strains: TA98, TA100, TA1535, TA1537, and TA1538), Assay Type: Histidine reverse gene mutation, Ames assay, Assay Code: SALT, Evaluation Type: Evaluation A (Pre-1980)
[4] = Species/Cell Type: Human lymphocytes, Assay Type: Sister-chromatid exchange (SCE) in vitro, Assay Code: SCLT, Evaluation Type: Evaluation B (Post-1980)
[5] = Species/Cell Type: Human, Assay Type: Sister-chromatid exchange (SCE) in vitro, Assay Code: SC1+, Evaluation Type: Evaluation B (Post-1980)
[6] = Species/Cell Type: Human, Assay Type: Sister-chromatid exchange (SCE) in vitro, Assay Code: SC1T, Evaluation Type: Evaluation B (Post-1980)
[7] = Species/Cell Type: Nonhuman, Assay Type: Sister-chromatid exchange (SCE) in vitro, Assay Code: SC2+, Evaluation Type: Evaluation B (Post-1980)
[8] = Species/Cell Type: Nonhuman, Assay Type: Sister-chromatid exchange (SCE) in vivo, Assay Code: SC3T, Evaluation Type: Evaluation B (Post-1980)
[9] = Species/Cell Type: Aspergillus nidulans, Assay Type: Mitotic recombination, Assay Code: ASG+, Evaluation Type: Evaluation A (Pre-1980)
[10] = Species/Cell Type: Chinese hamster lung (V79) cells, Assay Type: Forward gene mutation at the HPRT or ouabain locus, Assay Code: V79-, Evaluation Type: Evaluation A (Pre-1980)
[11] = Species/Cell Type: Escherichia coli polA (W3119 vs P3478), Assay Type: Rec-assay, DNA effects (bacterial DNA repair), Assay Code: RE1-, Evaluation Type: Evaluation A (Pre-1980)
[12] = Species/Cell Type: Neurospora crassa, Assay Type: Aneuploidy, chromosome aberrations, Assay Code: NEN-, Evaluation Type: Evaluation A (Pre-1980)
[13] = Species/Cell Type: Nonhuman, Assay Code: CCGT, Evaluation Type: Evaluation A (Pre-1980)
[14] = Species/Cell Type: Salmonella typhimurium, Assay Type: Forward and reverse gene mutation, host-mediated assay, Assay Code: HMA-, Evaluation Type: Evaluation A (Pre-1980)

Structure (SMILES): CS(=O)(=O)OCC(O)C(O)COS(C)(=O)=O (configuration not stated)
- mutagenic call (Species/Cell Type: Allium cepa, Assay Type: Chromosome aberrations, Assay Code: ALCT, Evaluation Type: Evaluation A (Pre-1980)): no conclusion
- mutagenic call (Species/Cell Type: Arabidopsis species, Assay Type: Gene mutation, Assay Code: ARM+, Evaluation Type: Evaluation A (Pre-1980)): active; positive
- mutagenic call (Species/Cell Type: Vicia faba, Assay Type: Chromosome aberrations, Assay Code: VIC+D, Dose Response: With dose response, Evaluation Type: Evaluation A (Pre-1980)): active; positive

Structure (SMILES): O=S1(=O)OCCCO1
- mutagenic call [1]: active; positive
- mutagenic call (Species/Cell Type: Salmonella typhimurium, Assay Type: Forward and reverse gene mutation, host-mediated assay, Assay Code: HMA+, Evaluation Type: Evaluation A (Pre-1980)): active; positive

Structure (SMILES): O=S1OCC2C(CO1)C1(Cl)C(Cl)=C(Cl)C2(Cl)C1(Cl)Cl (configuration not stated)
- mutagenic call [2]: no conclusion

Structure (SMILES): O=CCC=O
- mutagenic call [3]: no conclusion

Structure (SMILES): O=[N+]([O-])c1ccc2ncccc2c1
- mutagenic call [1]: active; positive

Structure (SMILES): CC1OC1C (configuration not stated)
- mutagenic call (Species/Cell Type: Neurospora crassa, Assay Type: Reverse gene mutation, Assay Code: NER+, Evaluation Type: Evaluation A (Pre-1980)): active; positive

Structure (SMILES): O=S=O
- mutagenic call (Species/Cell Type: Human lymphocytes, Assay Type: Sister-chromatid exchange (SCE) in vivo, Assay Code: SCY+, Evaluation Type: Evaluation B (Post-1980)): active; positive
- mutagenic call (Species/Cell Type: Tradescantia species, Assay Type: Chromosome aberrations, Assay Code: TRC+, Evaluation Type: Evaluation A (Pre-1980)): active; positive
- mutagenic call (Species/Cell Type: Tradescantia species, Assay Type: Gene mutation, Assay Code: TRM+D, Dose Response: With dose response, Evaluation Type: Evaluation A (Pre-1980)): active; positive

Structure (SMILES): CC[C@]1(O)CC2CN(CCc3c([nH]c4ccccc34)[C@@](C(=O)OC)(c3cc4c(cc3OC)N(C=O)[C@H]3[C@@](O)(C(=O)OC)[C@H](OC(C)=O)[C@]5(CC)C=CCN6CC[C@]43[C@@H]65)C2)C1 (some centres not stated)
- mutagenic call (Species/Cell Type: Human lymphocytes, Assay Type: Sister-chromatid exchange (SCE) in vitro, Assay Code: SCL+, Evaluation Type: Evaluation A (Pre-1980)): active; positive
- mutagenic call (Species/Cell Type: Human lymphocytes, Assay Type: Sister-chromatid exchange (SCE) in vitro, Assay Code: SCL+, Evaluation Type: Evaluation B (Post-1980)): active; positive
- mutagenic call [4]: no conclusion
- mutagenic call [5]: active; positive
- mutagenic call [6]: no conclusion
- mutagenic call (Species/Cell Type: Mammalian polychromatic erythrocytes, Assay Type: Micronucleus test, chromosome aberrations, Assay Code: MNT+, Evaluation Type: Evaluation A (Pre-1980)): active; positive
- mutagenic call (Species/Cell Type: Mouse (C3H/10T1/2) cells, Assay Type: Cell transformation, Assay Code: CTH-, Evaluation Type: Evaluation A (Pre-1980)): inactive; negative
- mutagenic call [7]: active; positive
- mutagenic call [8]: no conclusion

Structure (SMILES): COc1cc(=O)oc(/C=C/C=C/C=C/C(C)=C/[C@]2(C)O[C@H](C)[C@](C)(O)[C@H]2O)c1C
- mutagenic call (Species/Cell Type: Bacillus subtilis (H17 vs M45), Assay Type: Rec-assay, spot test, DNA effects (bacterial DNA repair), Assay Code: REW-, Evaluation Type: Evaluation A (Pre-1980)): inactive; negative

Structure (SMILES): C1CN1P1(N2CC2)=NP(N2CC2)(N2CC2)=NP(N2CC2)(N2CC2)=N1
- mutagenic call (Species/Cell Type: Neurospora crassa, Assay Type: Forward gene mutation, Assay Code: NEF+, Evaluation Type: Evaluation A (Pre-1980)): active; positive
- mutagenic call (Species/Cell Type: Nonhuman, Assay Type: Sister-chromatid exchange (SCE) in vivo, Assay Code: SC3+, Evaluation Type: Evaluation B (Post-1980)): active; positive

Structure (SMILES): NC[C@H]1O[C@H](O[C@H]2[C@H](O)[C@@H](O[C@H]3O[C@H](CO)[C@@H](O)[C@H](N)[C@H]3O)[C@H](N)C[C@@H]2N)[C@H](N)C[C@@H]1O
- mutagenic call (Species/Cell Type: Saccharomyces cerevisiae, Assay Type: Mitotic recombination or gene conversion, Assay Code: YEH-, Evaluation Type: Evaluation A (Pre-1980)): inactive; negative

Structure (SMILES): O=c1[nH]c(=O)n([C@H]2C[C@H](O)[C@@H](CO)O2)cc1F
- mutagenic call (Species/Cell Type: Aspergillus nidulans, Assay Type: Aneuploidy, chromosome aberrations, Assay Code: ASNT, Evaluation Type: Evaluation A (Pre-1980)): no conclusion
- mutagenic call [9]: active; positive
- mutagenic call [10]: inactive; negative
- mutagenic call (Species/Cell Type: Drosophila melanogaster, Assay Type: Aneuploidy, sex chromosome gain, chromosome aberrations, Assay Code: DAG+F, Evaluation Type: Evaluation A (Pre-1980)): active; positive
- mutagenic call (Species/Cell Type: Drosophila melanogaster, Assay Type: Aneuploidy, whole sex chromosome loss, chromosome aberrations, Assay Code: DAC+F, Evaluation Type: Evaluation A (Pre-1980)): active; positive
- mutagenic call (Species/Cell Type: Drosophila melanogaster, Assay Type: Sex-linked recessive lethal gene mutation, Assay Code: SRLT, Evaluation Type: Evaluation A (Pre-1980)): no conclusion
- mutagenic call [11]: inactive; negative
- mutagenic call (Species/Cell Type: Glycine max (soybean), Assay Type: Gene mutation, Assay Code: GLM+, Evaluation Type: Evaluation A (Pre-1980)): active; positive
- mutagenic call (Species/Cell Type: Human diploid fibroblasts, Assay Type: Unscheduled DNA synthesis (UDS) in vitro, DNA effects, Assay Code: UDH-, Evaluation Type: Evaluation A (Pre-1980)): inactive; negative
- mutagenic call [4]: no conclusion
- mutagenic call [5]: active; positive
- mutagenic call (Species/Cell Type: Mammalian polychromatic erythrocytes, Assay Type: Micronucleus test, chromosome aberrations, Assay Code: MNT+U, Dose Response: Unconfirmed positive response, Evaluation Type: Evaluation B (Post-1980)): active; positive
- mutagenic call (Species/Cell Type: Mouse (C3H/10T1/2) cells, Assay Type: Cell transformation, Assay Code: CTH+, Evaluation Type: Evaluation A (Pre-1980)): active; positive
- mutagenic call [12]: inactive; negative
- call [13]: no conclusion
- mutagenic call [7]: active; positive
- mutagenic call (Species/Cell Type: Saccharomyces cerevisiae, Assay Type: Mitotic recombination or gene conversion, Assay Code: YEH+, Evaluation Type: Evaluation A (Pre-1980)): active; positive
- mutagenic call [14]: inactive; negative
- mutagenic call (Species/Cell Type: Syrian hamster embryo (SA7/SHE) cells, Assay Type: Cell transformation, viral enhanced, Assay Code: CT7+, Evaluation Type: Evaluation A (Pre-1980)): active; positive
- mutagenic call (Species/Cell Type: Syrian hamster embryo (SHE) cells, Assay Type: Cell transformation, clonal assay, Assay Code: CTC-, Evaluation Type: Evaluation A (Pre-1980)): inactive; negative
- mutagenic call (Species/Cell Type: Vicia faba, Assay Type: Chromosome aberrations, Assay Code: VIC+, Evaluation Type: Evaluation A (Pre-1980)): active; positive

Structure (SMILES): O=C[C@H](O)[C@@H](O)[C@H](O[C@@H]1O[C@H](CO)[C@H](O)[C@H](O)[C@H]1O)[C@H](O)CO
- mutagenic call [4]: no conclusion
- mutagenic call [6]: no conclusion
- mutagenic call [8]: no conclusion

Structure (SMILES): COc1ccc(CCC(=O)c2c(O)cc(O[C@@H]3O[C@H](CO)[C@@H](O)[C@H](O)[C@H]3O[C@@H]3O[C@@H](C)[C@H](O)[C@@H](O)[C@H]3O)cc2O)cc1O
- mutagenic call (Species/Cell Type: Mammalian polychromatic erythrocytes, Assay Type: Micronucleus test, chromosome aberrations, Assay Code: MNT+, Evaluation Type: Evaluation B (Post-1980)): active; positive
- mutagenic call [14]: inactive; negative

Structure (SMILES): CC(=O)Oc1ccccc1C(=O)O
- mutagenic call (Species/Cell Type: Mammalian polychromatic erythrocytes, Assay Type: Micronucleus test, chromosome aberrations, Assay Code: MNTT, Evaluation Type: Evaluation A (Pre-1980)): no conclusion
- mutagenic call (Species/Cell Type: Mouse, Sex: Male, Assay Type: Sperm morphology, Assay Code: SPI-, Evaluation Type: Evaluation A (Pre-1980)): inactive; negative

Structure (SMILES): CC(=O)ON(C(C)=O)c1ccc(/C=C\c2ccccc2)cc1
- mutagenic call (Species/Cell Type: Human diploid fibroblasts, Assay Type: Unscheduled DNA synthesis (UDS) in vitro, DNA effects, Assay Code: UDH+, Evaluation Type: Evaluation A (Pre-1980)): active; positive
- call (Species/Cell Type: Nonhuman, Assay Code: CCG+L, Evaluation Type: Evaluation A (Pre-1980)): active; positive

Structure (SMILES): CCCCN(CCC(C)O)N=O (configuration not stated)
- mutagenic call [1]: active; positive

Structure (SMILES): Nc1ccc(S(N)(=O)=O)cc1
- mutagenic call (Species/Cell Type: Aspergillus nidulans, Assay Type: Aneuploidy, chromosome aberrations, Assay Code: ASN-, Evaluation Type: Evaluation A (Pre-1980)): inactive; negative
- mutagenic call [9]: active; positive
- mutagenic call [12]: inactive; negative
- call [13]: no conclusion

Structure (SMILES): O=C1c2ccccc2NC(c2ccc([N+](=O)[O-])o2)N1O (configuration not stated)
- mutagenic call (Species/Cell Type: Mammalian polychromatic erythrocytes, Assay Type: Micronucleus test, chromosome aberrations, Assay Code: MNT-, Evaluation Type: Evaluation B (Post-1980)): inactive; negative

Structure (SMILES): Cc1cc2ccccc2cn1
- mutagenic call [3]: no conclusion

Structure (SMILES): Cc1ccc2cc3c(cc(-c4ccccc4O)c4ccccc43)c3c2c1CC3
- mutagenic call [10]: inactive; negative

Structure (SMILES): O=C(O)CS
- mutagenic call [2]: no conclusion

Structure (SMILES): OCc1ccccc1
- mutagenic call [11]: inactive; negative

Structure (SMILES): NCCc1c[nH]c2ccc(O)cc12 (tested in a mixture with another compound)
- mutagenic call (Species/Cell Type: Drosophila melanogaster, Assay Type: Aneuploidy, whole sex chromosome loss, chromosome aberrations, Assay Code: DACTM, Evaluation Type: Evaluation A (Pre-1980)): no conclusion
- mutagenic call (Species/Cell Type: Drosophila melanogaster, Sex: Male, Assay Type: Heritable translocation test, chromosome aberrations, Assay Code: DHTT, Evaluation Type: Evaluation A (Pre-1980)): no conclusion
